From patent US11891386B2, “Indole compounds and their use” (ARIAGEN, INC., priority 2017, dated 2024)

Tests used:
[1] = test system: IL-21 secretion from human CD4+ T cells; assay: Suppression of IL-21 secretion by activated Th17 cells (ALPHALISA); format: cell-based; conditions: for IC50: 120 h, human CD4+ T cells under Th17 stimulation, 5 days; for potency in suppressing IL-21 secretion, in words: human CD4+ T cells
Source text: IL-21 is a pro-inflammatory cytokine secreted by CD4^+ Th17 cells and is thought to serve as a T-cell growth factor playing overlapping roles with IL-2. This Example describes a study that measured the IC50 values of the indole compounds disclosed herein for suppressing IL-21 secretion from human CD4^+ T cells that had been treated with stimulatory conditions that gave rise to TH17 cells (see, e.g., Dobritsa et al., J Biomol Screen. 18(1):75-84 (2013)).
Human CD4^+ T cells were purchased from Lonza Walkersville Inc. (Walkersville, MD). DMSO was obtained from Sigma (St. Louis, MO). Greiner cell culture plates, Gibco DMEM cell culture medium, media supplements, and antibiotics, as well as DYNABEADS Human T-Activator CD3/CD28 and R&D Systems TGF-β, IL-1β and IL-23 and Invitrogen IL-6 cytokines, were purchased through Fisher Scientific (Pittsburgh, PA). ALPHALISA assay plates and the Human Interleukin-21 ALPHALISA kit was obtained from Perkin Elmer (Boston, MA).
Cell culture plates were pre-coated with test compounds in serial dilutions for generating a 10-point, 3-fold dose response curve with a top concentration of 1 μM or 100 nM. To do this, compounds were dissolved in DMSO and added to an ECHO qualified plate for transfer to the cell culture plate with the ECHO555. The indole compounds to be tested were dissolved in […] and wells were backfilled with DMSO so that all treatments received 0.1% DMSO final volume. Positive control (0% inhibition) wells, in which compounds were replaced with […], were included on each plate. At least 15×10^6 frozen CD4^+ T cells per plate of compounds were thawed in a 37° C. water bath, and the cells were washed twice with 10 mL of the complete medium (DMEM supplemented with 10% fetal bovine serum (FBS), 100 U/mL penicillin, and 100 μg/mL streptomycin), followed by centrifugation (250×g, 10 min). Cells were re-suspended to the desired density, and cultured in 384-well treated sterile cell culture plates in a total volume of 50 μL per well. Each plate included wells with induced and un-induced cells.
Induced cells were activated in the complete medium with DYNABEADS Human T-Activator CD3/CD28 at a bead-to-cell ratio of 1:2.5 and stimulated with the following cytokines: transforming growth factor-β (TGF-β, 5 ng/mL), IL-6 (20 ng/mL), IL-23 (20 ng/mL), and IL-1β (10 ng/mL).
Un-induced cells were left in complete medium with no additional supplements. Plates were incubated at 37° C., 5% CO2 for a total of 5 days. Upon completion of the 5 day incubation period, cells were spun down (1,000×g, 1 min) and supernatant was transferred to the ALPHALISA assay plate using the Mosquito HTS liquid handler (TTP Labtech Inc., Cambridge, MA).
IL-21 levels in cell supernatants and cell-free control samples were measured using the ALPHALISA assay kit from Perkin Elmer, following the manufacturer's instructions. The assay was run at room temperature in 384-well ALPHAPLATES (cat. 6005350; Boston, MA). Briefly, immediately after transferring the cell supernatant to the assay plate, anti-IL-21 acceptor beads were added with the CERTUS FLEX liquid handler (LEAP Technologies, Morrisville, NC). The plate was sealed, spun down and incubated for 30 minutes. After incubation, the seal was removed, anti-IL-21 biotinylated antibody was added with the CERTUS FLEX, and the plate was sealed again, spun down and incubated for 60 minutes. Next, the seal was removed, streptavidin-coated donor beads were added with the CERTUS FLEX, and the plate was sealed, spun down and incubated for another 60 minutes. Finally, the seal was removed and the plate was read using the ENVISION reader (Perkin Elmer, Boston, MA) set with an excitation filter of 680 nm and an emission filter of 615 nm. Two independent IL-21 standard dilution curves were run per plate with analyte provided in the ALPHALISA kit.
For estimation of the assay performance, Z′ values were calculated for each plate, comparing positive and negative controls. […]

[2] = test system: human hepatocytes; assay: Hepatocyte intrinsic clearance assay, human hepatocytes; format: in vitro ADME; conditions: for CLint (μL/min/10^6 ells) / EH (%) hepatic extraction ratio: Human Hepatocytes; for CLint (μL/min/10^6 ells): 1 μM test compound; for EH (%) hepatic extraction ratio: well stirred liver model, fu=1; for clearance / metabolic profile, in words: human hepatocytes
Source text: The liver is an important organ in the body for drug metabolism. This Example describes hepatocyte intrinsic clearance assays using both human and mouse hepatocytes to evaluate the metabolic stability of the indole compounds disclosed herein. The parameters measured include t1/2 (half-life), CLint (intrinsic clearance), and EH (hepatic extraction ratio).
Testosterone (Lot FE111011-01) was obtained from Cerilliant (Round Rock, TX). 7-hydroxycoumarin (Lot 11631ED) was obtained from Sigma Aldrich (St. Louis, MO). Cryopreserved human hepatocytes pooled from ten donor males (X008001), cryopreserved male IRC/CD-1 mouse hepatocytes (M005052), INVITROGRO HI Medium (incubation), and INVITROGRO HT Medium (thawing) were obtained from Bioreclamation IVT (Baltimore, MD). All solvents were obtained from commercial sources and used without further purification.
Each test compound was prepared as a 1 mM stock solution in DMSO. A 2 μM solution of test compound and positive controls were prepared in INVITROGRO HI Medium (incubation). These solutions were pre-warmed in a sterile incubator set to maintain 37° C., 5% CO2, and 98% humidity. Cryopreserved hepatocytes were prepared at a concentration of 2×10^6 living cells/mL in incubation media and pre-warmed in the incubator. The compound solutions and hepatocyte mixtures were then combined at a ratio of 1:1 (v:v). The final volume of the reaction mixture was 750 μL, containing 1 μM test compound (10 μM for 7-hydroxycoumarin) and […]. The reaction mixture was placed in the incubator on a plate shaker. After 0, 15, 30, 60, 90, and 120 minutes of incubation, 100 μL of reaction mixtures were removed from the incubation plate and mixed with 150 μL of ice-cold acetonitrile in a designated well of a 96-well crash plate. The 96-well crash plate was placed on ice for 15 min, and samples were centrifuged (3,600 RPM, 10 min, 4° C.) to precipitate protein. The supernatants were diluted 1:1 (v:v) with water containing 0.15 μM verapamil and/or 1 μM tolbutamide (internal standards for positive and negative modes, respectively) in a 96-well shallow injection plate. This plate was sealed for LC-MS analysis. All measurements were done in duplicate.
The residual compound remaining (% R) was determined from LC-MS peak areas by comparison to the zero time point. Metabolic half-life (t1/2) and intrinsic clearance (CLint) values were calculated from the slope of the plot of ln (% R) vs. time and the concentration of hepatocytes present in the incubation. Percent remaining at 60 minutes was calculated by plugging in the 60 minute value into the slope equation generated by the percent remaining time points.
In vivo hepatic clearance CLH was calculated using the well stirred liver model according to the following equation:
[formula] where QH is the total liver blood flow, fu is unbound fraction of the drug, and CL′int is defined as follows: CL′int=CLint×(10^6 cells/g of liver weight)×(g liver weight/kg of body weight). In the first approximation, used in this study, fu=1.
Hepatic extraction ratio EH was calculated using the following equation:
[formula] Corresponding physiological parameters used in calculations for all species are shown below in Table 5.

Structure (SMILES)	IC50 [1] [nM]	CLint (μL/min/10^6 ells) [2] [μL/min/10^6 ells]	EH (%) hepatic extraction ratio [2] [%]	clearance / metabolic profile, in words [2]	potency in suppressing IL-21 secretion, in words [1]	times more potent than ARI-087 ([1]; IL-21 secretion assay)
COC(=O)c1csc(C(=O)c2c[nH]c3ccccc23)n1 [ARI-001, ITE]	38.2	220.4	91	–	–	–
CNC(=O)c1csc(C(=O)c2c[nH]c3ccc(Cl)cc23)n1 [ARI-049, 2-(5-chloro-1H-indole-3-carbonyl)-N-methylthiazole-4-carboxamide]	10.1	3.0	27	lower clearance and EH value	–	–
Nc1nnc(-c2csc(C(=O)c3c[nH]c4ccccc34)n2)o1 [ARI-083, (4-(5-amino-1,3,4-oxadiazol-2-yl)thiazol-2-yl)(1H-indol-3-yl)methanone]	0.3	1.1	12	lower clearance and hepatic extraction parameters than ARI-060	most potent	–
CCC(=O)c1csc(C(=O)c2c[nH]c3c(F)cccc23)n1 [ARI-140, 1-(2-(7-fluoro-1H-indole-3-carbonyl)thiazol-4-yl)propan-1-one]	8.6	3.5	30	–	–	–
Nc1nnc(-c2csc(C(=O)c3c[nH]c4c(F)cccc34)n2)o1 [ARI-118, (4-(5-amino-1,3,4-oxadiazol-2-yl)thiazol-2-yl)(7-fluoro-1H-indol-3-yl)methanone]	0.8	0.7	8.4	low clearance	most potent	about 32 times
COC(=O)c1csc(C(=O)c2c[nH]c3ccc(Cl)cc23)n1 [ARI-055, methyl 2-(5-chloro-1H-indole-3-carbonyl)thiazole-4-carboxylate]	73.6	10.3	56	–	–	–
CNC(=O)c1csc(C(=O)c2c[nH]c3ccc(F)cc23)n1 [ARI-065, 2-(5-fluoro-1H-indole-3-carbonyl)-N-methylthiazole-4-carboxamide]	14	7.6	48	lower clearance and EH value	–	–
